Results reported in patent US10428017B2, “Modulators of the cystic fibrosis transmembrane conductance regulator protein and methods of use” (AbbVie S.à.r.l., priority 2017, dated 2019).
pEC50: −log10 of the molar value. Where two headings read alike, the source gives them in different places.

Target: T1, F508delCFTR (Homo sapiens, UniProt P13569, DEL508-508)
T1 construct: expressed in transfected cells; host or cells: CFBE4lo-F508delCFTR-HRP cells (human lung derived epithelial cell line, doxycycline-inducible)
Assay: Cell Surface Expression-Horse Radish Peroxidase (CSE-HRP) Assay
Type: cell-based
Details: for pEC50: CFBE4lo-F508delCFTR-HRP cells, 18-24 hours at 33° C.; for Emax / Maximum % activity (with co-corrector): maximum at any tested concentration (up to 20 μM), normalized to on-plate positive control (2 μM co-corrector); for Maximum % activity (with co-corrector): with co-corrector 2 μM
Procedure: Cell Surface Expression-Horse Radish Peroxidase (CSE-HRP) Assay
A cellular assay for measuring the F508delCFTR cell surface expression after correction with test compounds either without or with a co-corrector (2 μM of 3-[(2R,4R)-4-({[1-(2,2-difluoro-1,3-benzodioxol-5-yl)cyclopropyl]carbonyl}amino)-7-methoxy-3,4-dihydro-2H-chromen-2-yl]benzoic acid), was developed in human lung derived epithelial cell line (CFBE4lo−) (Veit G et al, (2012) Mol Biol Cell. 23(21): 4188-4202). The development was achieved by expressing the F508delCFTR mutation along with a horseradish peroxidase (HRP) in the fourth exofacial loop, and then measuring the HRP activity using luminescence readout from these cells, CFBE4lo-F508delCFTR-HRP, that were incubated overnight with the test corrector compounds, either without or with the co-corrector. For this primary assay, the CFBE4lo-F508delCFTR-HRP cells were plated in 384-well plates (Greiner Bio-one; Cat 781080) at 4,000 cells/well along with 0.5 μg/mL doxycycline to induce the F508delCFTR-HRP expression and further incubated at 37° C., 5% CO2 for 72 hours. The test compounds were then added either without or with a co-corrector at the required concentrations and further incubated for 18-24 hours at 33° C. The highest concentration tested was 20 μM with an 8-point concentration response curve using a 3-fold dilution in both the test compound without or with the co-corrector. Three replicate plates were run to determine one EC50. All plates contained negative controls (dimethyl sulfoxide, DMSO) and positive control (2 μM of 3-[(2R,4R)-4-({[1-(2,2-difluoro-1,3-benzodioxol-5-yl)cyclopropyl]carbonyl}amino)-7-methoxy-3,4-dihydro-2H-chromen-2-yl]benzoic acid) as well as on-plate concentration response of the positive control. Post incubation, the plates were washed 5× times with Dulbecco's phosphate buffered saline (DPBS), followed by the addition of the HRP substrate, luminol (50 μL), and measuring the HRP activity using luminescence readout on EnVision® Multilabel Plate Reader (Perkin Elmer; product number 2104-0010). The raw counts from the experiment were analyzed using Accelrys® Assay Explorer v3.3.
Z′ greater than 0.5 was used as passing quality control criteria for the plates.
The Z′ is defined as: 1−[3*SDPositive Control+3*SDNegative Control/Absolute(Meanpostivie Control−MeanNegative Control)] wherein “SD” is standard deviation.
The % activity measured at each of the 8 test concentrations of the test compound added either without or with a co-corrector (2 μM of 3-[(2R,4R)-4-({[1-(2,2-difluoro-1,3-benzodioxol-5-yl)cyclopropyl]carbonyl}amino)-7-methoxy-3,4-dihydro-2H-chromen-2-yl]benzoic acid) was normalized to the on-plate positive control using the following formulae: % activity(Test compound without co-corrector)=[(test compound without co-corrector response−DMSO response)/(positive control response−DMSO response)]*100 % activity(Test compound with co-corrector)=[(test compound with co-corrector response−DMSO response)/(positive control response−DMSO response)]*100
The maximum % activity achieved for the test compound either without or with a co-corrector at any tested concentration is presented in Table 1 along with the respective EC50's calculated using the following general sigmoidal curve with variable Hill slope equation (described as Model 42 in the Accelrys® Assay Explorer v3.3 software): y=(a−d)/(1+(x/c)^b)+d
General sigmoidal curve with concentration, response, top, bottom, EC50 and Hill slope. This model describes a sigmoidal curve with an adjustable baseline, a. The equation can be used to fit curves where response is either increasing or decreasing with respect to the independent variable, “x”.
“x” is a concentration of drug under test.
“a” is the maximum response, and “d” is the minimum response
“c” is the inflection point (EC50) for the curve. That is, “y” is halfway between the lower and upper asymptotes when x=c.
“b” is the slope-factor or Hill coefficient. […]

[1] = test compound without co-corrector, HRP luminescence readout, read-out: EC50 (without co-corrector)
[2] = test compound without co-corrector
[3] = with co-corrector 2 μM 3-[(2R,4R)-4-({[1-(2,2-difluoro-1,3-benzodioxol-5-yl)cyclopropyl]carbonyl}amino)-7-methoxy-3,4-dihydro-2H-chromen-2-yl]benzoic acid, read-out: EC50 (with co-corrector)

T1 sequence (P13569 with tags, fused parts or gaps DEL508-508): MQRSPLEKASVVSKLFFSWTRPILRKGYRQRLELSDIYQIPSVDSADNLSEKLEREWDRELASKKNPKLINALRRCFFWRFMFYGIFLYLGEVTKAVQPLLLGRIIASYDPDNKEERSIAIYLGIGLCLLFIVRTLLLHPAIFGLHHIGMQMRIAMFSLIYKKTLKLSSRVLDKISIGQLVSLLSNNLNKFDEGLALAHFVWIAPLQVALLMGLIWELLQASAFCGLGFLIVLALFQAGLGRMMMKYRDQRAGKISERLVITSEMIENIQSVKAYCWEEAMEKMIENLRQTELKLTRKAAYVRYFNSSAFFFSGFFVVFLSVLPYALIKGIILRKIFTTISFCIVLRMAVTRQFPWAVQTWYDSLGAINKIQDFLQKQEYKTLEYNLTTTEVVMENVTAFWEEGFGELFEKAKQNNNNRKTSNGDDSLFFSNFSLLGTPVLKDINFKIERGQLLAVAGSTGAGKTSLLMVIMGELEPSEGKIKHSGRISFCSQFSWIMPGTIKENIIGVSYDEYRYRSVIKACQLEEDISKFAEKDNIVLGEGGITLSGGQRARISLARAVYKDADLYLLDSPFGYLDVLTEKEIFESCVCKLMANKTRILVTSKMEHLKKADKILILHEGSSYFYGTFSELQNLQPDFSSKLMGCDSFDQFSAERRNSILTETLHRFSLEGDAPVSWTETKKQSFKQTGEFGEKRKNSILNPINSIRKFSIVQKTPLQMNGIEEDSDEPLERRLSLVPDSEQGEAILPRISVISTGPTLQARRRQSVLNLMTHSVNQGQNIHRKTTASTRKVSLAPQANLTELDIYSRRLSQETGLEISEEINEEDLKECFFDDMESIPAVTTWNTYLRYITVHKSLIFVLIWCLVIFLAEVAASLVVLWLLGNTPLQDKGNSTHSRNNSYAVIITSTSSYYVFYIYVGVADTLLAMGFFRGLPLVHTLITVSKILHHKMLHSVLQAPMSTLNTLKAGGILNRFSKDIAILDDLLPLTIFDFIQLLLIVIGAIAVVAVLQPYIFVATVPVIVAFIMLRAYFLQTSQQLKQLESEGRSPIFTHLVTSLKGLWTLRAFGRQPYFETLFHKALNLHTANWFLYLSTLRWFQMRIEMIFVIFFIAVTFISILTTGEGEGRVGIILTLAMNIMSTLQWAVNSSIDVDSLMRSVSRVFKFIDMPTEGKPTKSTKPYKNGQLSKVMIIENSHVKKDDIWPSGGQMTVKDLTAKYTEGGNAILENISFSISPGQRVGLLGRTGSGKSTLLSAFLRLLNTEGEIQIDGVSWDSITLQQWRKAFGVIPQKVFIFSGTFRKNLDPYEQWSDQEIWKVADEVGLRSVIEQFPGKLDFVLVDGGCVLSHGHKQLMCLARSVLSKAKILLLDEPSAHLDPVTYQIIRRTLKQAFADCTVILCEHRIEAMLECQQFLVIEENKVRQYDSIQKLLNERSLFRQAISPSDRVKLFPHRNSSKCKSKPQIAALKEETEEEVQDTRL

| pEC50 [1] | Emax [2] | pEC50 [3] | Maximum % activity (with co-corrector) | Structure (SMILES) |
| --- | --- | --- | --- | --- |
| ≤ 5.00 | < 50% | 5.00 to 5.52 | + (<150) | Cc1ccccc1S(=O)(=O)NC(=O)C1CCOc2ccccc21 (stereo not shown) [Example 30, N-(2-methylbenzene-1-sulfonyl)-3,4-dihydro-2H-1-benzopyran-4-carboxamide] |
| ≤ 5.00 | < 50% | 5.00 to 5.52 | ++ (≥150 and <350) | O=C(NS(=O)(=O)c1cccc2ccccc12)C1(c2ccccc2)C[C@@H](CN2CCCC2)Oc2ccccc21 (stereo partly drawn) [Example 31, (2S)—N-(naphthalene-1-sulfonyl)-4-phenyl-2-[(pyrrolidin-1-yl)methyl]-3,4-dihydro-2H-1-benzopyran-4-carboxamide] |
| 5.00 to 5.52 | < 50% | 5.00 to 5.52 | ++ (≥150 and <350) | C[C@@]1(C(=O)NS(=O)(=O)c2cccc3ccccc23)COc2cc3c(cc21)OC(F)(F)O3 [Example 32, (7S)-2,2-difluoro-7-methyl-N-(naphthalene-1-sulfonyl)-6,7-dihydro-2H-furo[2,3-f][1,3]benzodioxole-7-carboxamide] |
| ≤ 5.00 | < 50% | ≤ 5.00 | ++ (≥150 and <350) | C[C@]1(C(=O)NS(=O)(=O)c2cccc3ccccc23)COc2cc3c(cc21)OC(F)(F)O3 [Example 33, (7R)-2,2-difluoro-7-methyl-N-(naphthalene-1-sulfonyl)-6,7-dihydro-2H-furo[2,3-f][1,3]benzodioxole-7-carboxamide] |
| ≤ 5.00 | < 50% | ≤ 5.00 | + (<150) | O=C(NS(=O)(=O)c1cccc2ccccc12)C1COc2ccccc21 (stereo not shown) [Example 34, N-(naphthalene-1-sulfonyl)-2,3-dihydro-1-benzofuran-3-carboxamide] |
| 5.00 to 5.52 | 50 to 150% | 5.00 to 5.52 | +++ (≥350) | COc1ccc(Br)c2c1[C@@H](C(=O)NS(=O)(=O)c1cccc3ccccc13)CCO2 [Example 35, (4S)-8-bromo-5-methoxy-N-(naphthalene-1-sulfonyl)-3,4-dihydro-2H-1-benzopyran-4-carboxamide] |
| > 5.52 | ≥ 150% | > 5.52 | +++ (≥350) | COc1ccc(Br)c2c1[C@H](C(=O)NS(=O)(=O)c1cccc3ccccc13)CCO2 [Example 36, (4R)-8-bromo-5-methoxy-N-(naphthalene-1-sulfonyl)-3,4-dihydro-2H-1-benzopyran-4-carboxamide] |
| 5.00 to 5.52 | ≥ 150% | > 5.52 | +++ (≥350) | COc1ccc(Br)c2c1OCC2C(=O)NS(=O)(=O)c1cccc2ccccc12 (stereo not shown) [Example 37, 4-bromo-7-methoxy-N-(naphthalene-1-sulfonyl)-2,3-dihydro-1-benzofuran-3-carboxamide] |
| > 5.52 | ≥ 150% | > 5.52 | +++ (≥350) | COc1cccc2c1C(C(=O)NS(=O)(=O)c1cccc3ccccc13)CC1(CCCCC1)O2 (stereo not shown) [Example 38, 5-methoxy-N-(naphthalene-1-sulfonyl)-3,4-dihydrospiro[1-benzopyran-2,1′-cyclohexane]-4-carboxamide] |
| > 5.52 | ≥ 150% | > 5.52 | +++ (≥350) | COc1ccc(Br)c2c1C(C(=O)NS(=O)(=O)c1cccc3ccccc13)CO2 (stereo not shown) [Example 39, 7-bromo-4-methoxy-N-(naphthalene-1-sulfonyl)-2,3-dihydro-1-benzofuran-3-carboxamide] |
| > 5.52 | ≥ 150% | > 5.52 | +++ (≥350) | COc1ccc(Br)c2c1C(C(=O)NS(=O)(=O)c1cccc3ccccc13)CC1(CCCCC1)O2 (stereo not shown) [Example 41, 8-bromo-5-methoxy-N-(naphthalene-1-sulfonyl)-3,4-dihydrospiro[1-benzopyran-2,1′-cyclohexane]-4-carboxamide] |
| 5.00 to 5.52 | 50 to 150% | > 5.52 | +++ (≥350) | COc1ccc(Br)c2c1C(C(=O)NS(=O)(=O)c1cccc3cccnc13)CCO2 (stereo not shown) [Example 42, 8-bromo-5-methoxy-N-(quinoline-8-sulfonyl)-3,4-dihydro-2H-1-benzopyran-4-carboxamide] |
| 5.00 to 5.52 | < 50% | 5.00 to 5.52 | ++ (≥150 and <350) | O=C(NS(=O)(=O)c1cccc2ccccc12)C1COc2c(Cl)cccc21 (stereo not shown) [Example 43, 7-chloro-N-(naphthalene-1-sulfonyl)-2,3-dihydro-1-benzofuran-3-carboxamide] |
| 5.00 to 5.52 | 50 to 150% | 5.00 to 5.52 | +++ (≥350) | CCC1(C(=O)NS(=O)(=O)c2cccc3ccccc23)COc2c(Cl)cccc21 (stereo not shown) [Example 44, 7-chloro-3-ethyl-N-(naphthalene-1-sulfonyl)-2,3-dihydro-1-benzofuran-3-carboxamide] |
| 5.00 to 5.52 | 50 to 150% | 5.00 to 5.52 | ++ (≥150 and <350) | O=C(NS(=O)(=O)c1cccc2ccccc12)C1COc2c1cccc2C(F)(F)F (stereo not shown) [Example 45, N-(naphthalene-1-sulfonyl)-7-(trifluoromethyl)-2,3-dihydro-1-benzofuran-3-carboxamide] |
| > 5.52 | ≥ 150% | > 5.52 | +++ (≥350) | COc1ccc(Br)c2c1C(C(=O)NS(=O)(=O)c1cccc3ncccc13)CC(C)(C)O2 (stereo not shown) [Example 46, 8-bromo-5-methoxy-2,2-dimethyl-N-(quinoline-5-sulfonyl)-3,4-dihydro-2H-1-benzopyran-4-carboxamide] |
| 5.00 to 5.52 | < 50% | 5.00 to 5.52 | ++ (≥150 and <350) | COc1cccc2c1C(C(=O)NS(=O)(=O)c1cccc3cccnc13)CC(C)(C)O2 (stereo not shown) [Example 47, 5-methoxy-2,2-dimethyl-N-(quinoline-8-sulfonyl)-3,4-dihydro-2H-1-benzopyran-4-carboxamide] |
| 5.00 to 5.52 | ≥ 150% | 5.00 to 5.52 | +++ (≥350) | COc1cccc2c1C(C(=O)NS(=O)(=O)c1cccc3ncccc13)CC(C)(C)O2 (stereo not shown) [Example 48, 5-methoxy-2,2-dimethyl-N-(quinoline-5-sulfonyl)-3,4-dihydro-2H-1-benzopyran-4-carboxamide] |
| 5.00 to 5.52 | ≥ 150% | > 5.52 | +++ (≥350) | COc1cccc2c1C(C(=O)NS(=O)(=O)c1cccc3ccccc13)CC(C)(C)O2 (stereo not shown) [Example 49, 5-methoxy-2,2-dimethyl-N-(naphthalene-1-sulfonyl)-3,4-dihydro-2H-1-benzopyran-4-carboxamide] |
